Data as given in patent US20120065228A1, “COMPOSITIONS AND METHODS FOR TREATING, CONTROLLING, REDUCING, OR AMELIORATING OCULAR INFLAMMATORY WITH LOWER RISK OF INCREASED INTRAOCULAR PRESSURE” (priority 2007, published 2012).
Like-named read-outs stand apart in the source and are kept apart here.

Columns and labels:
[1] = system: New Zealand White rabbits; assay type: in vivo; details: for Rabbits that died or were euthanized between Days 11 and 33: right eye four times daily, Days 1-31; for Mortality (animals found dead or euthanized prior to study completion/number of animals in group): 50 μL topical right eye 4 x daily, to Day 33; for Mortality rate: right eye four times daily up to 31 days, dexamethasone 0.05 mg/dose, BOL-303242-X per dose level (0.05, 0.25, 0.5 mg/dose)
Procedure: On Days 1-31, animals received daily topical doses of the appropriate test article into the right eye. Animals were dosed four times per day, with doses administered 2 hours apart. Doses were administered using a calibrated 50-μL pipette. The eyelids were held close for 10 seconds immediately following dosing. The time of each dose administration was recorded.
Animals determined to be moribund were euthanized with an intravenous injection of commercial euthanasia solution.

[2] = system: myocilin protein in CM of monkey TM cells; test: Myocilin protein in conditioned media of monkey TM cells (Western blot); assay type: cell-based, rhesus monkeys (Macaca mulatta); details: for Effect on myocilin concentrations in CM: 3 to 300 nM, second 48-hour treatment period
Procedure: All animal procedures were in accordance with the ARVO (Association for Research in Vision and Ophthalmology) resolution on animal care. Eyes from freshly killed, healthy rhesus monkeys (Macaca mulatta), obtained from Lonza (Walkersville, Md.), were transported in CO2-independent medium on ice, and processed approximately 40 hours post-enucleation. Following removal of iris, lens, and the bulk of the ciliary body, opercula (an anatomical feature of monkey TM) were stripped from anterior segment quadrants. Using fine scissors, strips of TM were excised, and subdivided TM fragments were explanted to multiwell plates containing growth medium (described below) and incubated with Cytodex-3 gelatin-coated beads (Sigma Chemical Company, St. Louis, Mo.). The beads attach to the explants within hours and provide additional substrate area for out-migration of cells. Proliferating TM cells colonize additional beads and also “spill” onto the tissue culture plastic and form colonies. After several days, the original TM explants and beads were transferred to new wells, generating additional primary cultures. Subconfluent monolayers of cells on tissue culture plastic were passed from 12-well plates to 35- or 60-mm dishes using a Collagenase-Dispase (Roche Applied Bioscience, Indianapolis, Ind.). Second- or third-passage subcultures were finally harvested enzymatically as above, and the cells were counted and cryopreserved in liquid nitrogen.
For each study, up to nine TM cell strains, each derived from an individual monkey, were tested separately. Cells were thawed and seeded into 12- or 48-well clusters (Falcon, BD Biosciences; 150,000 and 30,000 cells/well, respectively) in proliferation medium. When cells were 75% to 90% confluent proliferation medium was replaced by a 5:4 mixture of HESFM and Dulbecco's MEM, respectively, supplemented with 10% FBS, with added taurine, ascorbic acid phosphate, glutathione, and antibiotic as for proliferation medium (above), and with 2.72 g/L glucose and 1.72 g/L fructose. At confluence, the medium was changed to Dulbecco's MEM, containing 10% FBS^40, ascorbic acid phosphate, antibiotic, 2.72 g/L glucose and 1.72 g/L fructose. Cells were maintained as stable, confluent monolayers in this latter medium for 4 to 7 days before experimental treatments commenced.
All treatments, including media for vehicle control samples, contained a final DMSO concentration of 0.1% (v/v) across the concentration ranges selected. Treatments lasted 96 hours, with one exchange of medium on the third treatment day. The final 48-hr conditioned media (“CM”) samples were collected in their entirety (0.5 ml), centrifuged briefly to remove particulates, aliquoted, and stored at −20° C. until thawed for analysis.
Undiluted CM was combined with denaturing 4× sample buffer containing 2% SDS, and samples were loaded at equivalent protein content onto 4-20% Tris-HCl polyacrylamide gels (BioRad, Hercules, Calif.). After electrophoresis, proteins underwent wet transfer to […] nitrocellulose (BioRad) for immunoblotting. The filters were blocked with 5% (w/v) nonfat dry milk (BioRad) in Tris-buffered saline plus 0.02% (v/v) Tween-20 (“TBST”; Tween-20 from Calbiochem, San Diego, Calif.), and incubated with a 1:2000 dilution (from 200 μg/ml) of goat anti-recombinant human myocilin antibody (R&D Systems, Minneapolis, Minn.) in blocking buffer, overnight at 4° C. […]

[3] = 0.05 mg/dose (0.1% dexamethasone suspension; 1 mg/g BOL-303242-X suspension)

Structure (SMILES)	Rabbits that died or were euthanized between Days 11 and 33 [1, 3]	Mortality (animals found dead or euthanized prior to study completion/number of animals in group) ([1]; 0.1% Dexamethasone (Maxidex), 0.05 mg/dose)	Mortality rate [1]	Effect on myocilin concentrations in CM [2]	Mortality (animals found dead or euthanized prior to study completion/number of animals in group) ([1]; 1 mg/g, 0.05 mg/dose)	Day of Death (day euthanized or found dead) ([1]; 5 mg/g BOL-303242-X ([…]) topical 4 x daily, individual rabbits, Group C)	Rabbits that died or were euthanized between Days 11 and 33 ([1]; 5 mg/g suspension ([…]))	Mortality (animals found dead or euthanized prior to study completion/number of animals in group) ([1]; 5 mg/g, […])	Day of Death (day euthanized or found dead) ([1]; 10 mg/g BOL-303242-X (0.5 mg/dose) topical 4 x daily, individual rabbit, Group B)	Rabbits that died or were euthanized between Days 11 and 33 ([1]; 10 mg/g suspension (0.5 mg/dose))	Morbidity observation in surviving rabbits ([1]; 10 mg/g suspension (0.5 mg/dose), one surviving rabbit (Group B, No. 3048))	Mortality (animals found dead or euthanized prior to study completion/number of animals in group) ([1]; 10 mg/g, 0.5 mg/dose)	Levels of myocilin protein released by cultured monkey TM cells, compared to DEX [2]	Maximal efficacy for myocilin accumulation in CM, relative to DEX treatment ([2]; computed across all nine TM cells strains)	Activity on myocilin gene expression ([2]; monkey TM cells, compared with DEX at high doses)
C[C@@H]1C[C@H]2[C@@H]3CCC4=CC(=O)C=C[C@]4(C)[C@@]3(F)[C@@H](O)C[C@]2(C)[C@@]1(O)C(=O)CO [dexamethasone, reference compound]	Six of ten	6/10^(3)	6 deaths per 10 rabbits	increased myocilin concentrations in a dose-dependent manner	–	–	–	–	–	–	–	–	–	–	–
Cc1ccc2c(NCC(O)(CC(C)(C)c3cc(F)cc4c3OCC4)C(F)(F)F)cccc2n1 (stereo not drawn) [BOL-303242-X]	one of ten	–	1-2 deaths per 10 rabbits	increased myocilin concentrations in a dose-dependent manner	1/10^(6)	33	two of ten	2/10^(5)	11	one of ten	diarrhea on Day 18	1/10^(4)	significantly lower levels	about 50%	partial agonist activity
